According to PubChem BioAssay (NCI):
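Where inhibition never reached the appropriate level, the endpoint shown equals the highest concentration tested. Otherwise, values were interpolated linearly from a five-concentration, 48-hour dose response in 96-well plates. GI50 is the concentration that inhibits growth by half. The concentration for full growth arrest is given as TGI.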

What was measured:
Test in all cases: NCI-60 cell line screen, 48 h
786-0 renal = system: 786-0 renal
BT-549 breast = system: BT-549 breast
DU-145 prostate = system: DU-145 prostate
HCT-116 colon = system: HCT-116 colon
LOX IMVI melanoma = system: LOX IMVI melanoma
MCF7 breast = system: MCF7 breast
OVCAR-8 ovarian = system: OVCAR-8 ovarian
PC-3 prostate = system: PC-3 prostate
SK-MEL-2 melanoma = system: SK-MEL-2 melanoma
UACC-62 melanoma = system: UACC-62 melanoma

Row | Structure (SMILES) | GI50 (786-0 renal) [µM] | TGI (786-0 renal) [µM] | GI50 (BT-549 breast) [µM] | TGI (BT-549 breast) [µM] | GI50 (DU-145 prostate) [µM] | TGI (DU-145 prostate) [µM] | GI50 (HCT-116 colon) [µM] | TGI (HCT-116 colon) [µM] | GI50 (LOX IMVI melanoma) [µM] | TGI (LOX IMVI melanoma) [µM] | GI50 (MCF7 breast) [µM] | TGI (MCF7 breast) [µM] | GI50 (OVCAR-8 ovarian) [µM] | TGI (OVCAR-8 ovarian) [µM] | GI50 (PC-3 prostate) [µM] | TGI (PC-3 prostate) [µM] | GI50 (SK-MEL-2 melanoma) [µM] | TGI (SK-MEL-2 melanoma) [µM] | GI50 (UACC-62 melanoma) [µM] | TGI (UACC-62 melanoma) [µM]
1 | Fc1ccc(-c2ncn(C3CCNCC3)c2-c2ccnc(Oc3ccccc3)n2)cc1 | > 22.5 | > 25 | 23 | > 25 | > 25 | > 25 | 14.8 | > 25 | > 15.8 | > 25 | 9.3 | > 25 | > 25 | > 25 | > 25 | > 25 | > 25 | > 25 | > 25 | > 25
2 | C=CCCC(O)c1ccc(C(O)CCCCCCCCCCCC)o1 (stereo unspecified) | 17.6 | 31.5 | 19.9 | 42.2 | 22.6 | 46.9 | 14.8 | 28.6 | 16.2 | 29.7 | 82.2 | > 100 | 13.5 | 30.3 | 22.8 | 47.8 | 28.6 | 89.4 | 17.3 | 32.8
3 | CC1(C)CC[C@]2(C(=O)n3ccnc3)CC[C@]3(C)[C@H](C(=O)C=C4[C@@]5(C)C=C(C#N)C(=O)C(C)(C)[C@@H]5CC[C@]43C)[C@@H]2C1 | < 0.01 | 0.0199 | < 0.0328 | 0.126 | < 0.01 | 0.0174 | < 0.0112 | 0.0273 |  |  | < 0.01 | > 100 | < 0.01 |  | < 0.0142 | 0.0655 | < 0.0336 |  | < 0.014 | < 0.0336
4 | C[C@]12CCC3[C@@H](C[C@H]4OC(=O)[C@@]35CCC(=O)C=C45)C1CCC2=O (stereo partly specified) |  | > 100 |  |  |  |  |  |  |  |  |  |  |  | > 100 |  |  |  | > 100 |  | 
5 | CN(C)c1ccc(/C=C/C(=O)c2ccccc2)cc1Br |  | 31.8 |  |  |  |  |  |  |  |  |  |  |  | 57.1 |  |  |  | 44.5 |  | 32.3
6 | COC(=O)CSc1ccccc1 |  | 30.1 |  |  |  |  |  | > 100 |  | > 100 |  |  |  | > 100 |  |  |  | 46.4 |  | > 100
7 | COc1ccc(CN2C(=O)C(Cc3cc(OC)c(OC)c(C)c3OC)N(C(=O)OC(C)C)C(=O)/C2=C/c2cc(OC)c(OC)c(C)c2OC)cc1 (stereo unspecified) |  | > 100 |  |  |  |  |  | > 100 |  | > 100 |  |  |  | > 100 |  |  |  | > 100 |  | > 100
8 | CN(CCCCCl)P(=O)(OCc1ccc([N+](=O)[O-])o1)C(F)(F)c1ccc(CC(=O)N[C@@H](CC(=O)O)C(=O)N[C@@H](Cc2ccc(C(F)(F)P(=O)(OCc3ccc([N+](=O)[O-])o3)N(C)CCCCCl)cc2)C(N)=O)cc1 (stereo partly specified) | > 100 | > 100 | 18.8 | 44.4 | 85.8 | > 100 |  |  | 28.2 | > 100 | 32.8 | > 100 | > 100 | > 100 | 80.5 | > 100 | 21.6 | 57.4 | 58 | > 100
9 | O=c1cc2n(c(=O)[nH]1)C1OC(C(O)C1O)[C@H]2CCO (stereo partly specified) |  | > 100 |  |  |  |  |  |  |  | > 100 |  |  |  | > 100 |  |  |  | > 100 |  | > 100
10 | O=C1OC(c2ccccc2)C2CC3CC4(CCC3CN12)OCCO4 (stereo unspecified) |  | > 100 |  |  |  |  |  | > 100 |  | > 100 |  |  |  | > 100 |  |  |  | > 100 |  | > 100
11 | COc1ccc(C(=O)C(c2ccc(OC)cc2)C2C(=O)Oc3ccccc32)cc1 (stereo unspecified) | > 100 | > 100 |  |  |  |  | > 100 | > 100 |  |  |  |  | > 100 | > 100 |  |  | > 100 | > 100 | > 100 | > 100
12 | COc1ccc(-c2cn(-c3ccc(Cl)cc3)c(=S)[nH]2)cc1OC | 6.44 | 91.7 | 7.3 | > 100 | 14 | > 100 | 3.96 | > 100 | 1.52 | 3.11 | 4.77 | > 100 | 46.7 | > 100 | 65.5 | > 100 | > 100 | > 100 |  | 
13 | C[As](C)Sc1ccnc(S[As](C)C)n1 | 5.36 | > 40.5 | 3.78 | 18.2 | 5.98 | > 39.7 | 2.13 | > 34.8 | 2.76 | 96.2 | 3.23 | > 35.1 | 5.51 | > 40.1 | 3.14 | 30.8 |  |  | 2.38 | 15.6
14 | Cc1cc(C)nc(NS(=O)(=O)c2ccc(NC(=O)c3cccc4c(Nc5ccc(S(=O)(=O)Nc6nc(C)cc(C)n6)cc5)c5ccccc5nc34)cc2)n1 |  | 46.8 |  |  |  |  |  | 26 |  | 38.7 |  |  |  | 68.1 |  |  |  | 70.4 |  | 57.3
15 | O=C(c1ccccc1)c1ccc(Cl)c([N+](=O)[O-])c1 | 21 | 99.2 | 16.7 | 31.5 | 3.69 | 11.7 | 4.78 | 18.1 | 2.43 | 6.11 | 2.56 | 9.74 | 4.7 | 17.7 | 8.22 | 29.8 | 2.96 | 6.89 |  | 
16 | O=C(Nc1ccc(Cl)c(Cl)c1)C(=O)Nn1c(=S)[nH]c2ccccc2c1=O |  | > 100 |  |  |  |  |  | > 100 |  | > 100 |  |  |  | > 100 |  |  |  | > 100 |  | > 100
17 | CCOC(=O)NC(=O)c1cn(CCCCCOC(=O)NCCCCCCNC(=O)OCCCCCn2cc(C(=O)NC(=O)OCC)c(=O)[nH]c2=O)c(=O)[nH]c1=O |  | > 100 |  |  |  |  |  | > 100 |  | > 100 |  |  |  | > 100 |  |  |  | > 100 |  | > 100
